Experimental data published in patent US20110190336A1, “AZABENZIMIDAZOLONES” (CARA THERAPEUTICS, INC., priority 2008, published 2011).

Key:
human DP2 receptor [1] = molecular target: T1, human DP2 receptor (Homo sapiens, UniProt Q9Y5Y4); experiment: Measurement of inhibition of intracellular cAMP induction (LANCE cAMP TR-FRET); format: cell-based; settings: human DP2 cells
T1 construct: expressed in transfected cells; host or cells: CHO-K1 FLP-In (Invitrogen, catalog no. R758-07), stably transfected
T1 sequence (Q9Y5Y4 1-395): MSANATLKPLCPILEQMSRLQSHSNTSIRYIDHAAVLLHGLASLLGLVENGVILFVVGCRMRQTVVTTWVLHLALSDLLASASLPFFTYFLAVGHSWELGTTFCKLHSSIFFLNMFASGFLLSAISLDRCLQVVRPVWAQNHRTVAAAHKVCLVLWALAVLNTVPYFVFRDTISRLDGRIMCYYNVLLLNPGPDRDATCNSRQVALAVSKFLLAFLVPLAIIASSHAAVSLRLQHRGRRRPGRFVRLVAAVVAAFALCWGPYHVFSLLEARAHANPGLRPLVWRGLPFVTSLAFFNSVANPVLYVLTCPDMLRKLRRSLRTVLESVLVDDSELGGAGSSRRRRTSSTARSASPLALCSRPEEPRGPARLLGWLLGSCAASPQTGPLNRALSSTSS
Method: The ability of compounds to act as antagonists or agonists at the human DP2 receptor was determined by measuring changes in intracellular cAMP levels using a LANCE cAMP detection kit (PerkinElmer, catalog no. AD0264) utilizing time-resolved fluorescence resonance energy transfer (TR-FRET).
Human DP2 cells were grown as described above. Cells were diluted to 2×10^5 cells/mL, and pre-incubated with 0.5 mM […] or IBMX (Sigma, catalog no. I7018). Antibody was added to all the cells as per the manufacturer's instructions. For antagonist experiments, cells were then pre-stimulated for 15 minutes with 4 μM of the water soluble forskolin derivative NKH-477 (Tocris, catalog no. 1603) to increase intracellular cAMP levels. An aliquot of cells was removed for use in uninduced controls. […] After a three hour equilibration, plates were read on an Envision multi-mode detector (PerkinElmer). TR-FRET was measured using a 330-380 nm excitation filter, 615 and 665 nm emission filters, and a 380 nm dichroic mirror set at a Z-height of 11 mm.
The cAMP concentration in each well was back-calculated from a cAMP standard curve run concurrently with each assay. Cyclic AMP responses were expressed as a percent of the difference between the maximum and minimum responses, determined from the induced and uninduced controls, respectively. […]

human DP2 receptor [2] = molecular target: T1, human DP2 receptor; experiment: Prostaglandin D2 binding inhibition assay (scintillation proximity assay, 3H PGD2, membranes of transfected CHO cells); settings: SPA, 5.5 nM 3H PGD2, CHO-K1 FLP-In human DP2 membranes; upper limit determinable 30 μM; read-out: IC50 ranges for inhibition of PGD2 binding to human DP2
In short: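 Membranes (5 μg) from CHO-K1 cells stably expressing human DP2 were mixed with WGA SPA beads and 5.5 nM 3H PGD2 in Tris buffer with 10 mM MgCl2, 100 mM NaCl, 0.1% BSA, plus compound. After 60 min at room temperature, CPM were read; IC50 from two-parameter nonlinear regression.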

Compound: CS(=O)(=O)c1ccccc1S(=O)(=O)N1CCC(n2c(=O)n(CC(=O)O)c3cccnc32)CC1 [Compound 63, 2-(3-(1-(2-(methylsulfonyl)phenyl-sulfonyl)piperidin-4-yl)-2-oxo-2,3-dihydro-1H-imidazo[4,5-b]pyridin-1-yl)acetic acid]
- EC50 (human DP2 receptor [1]; 4 μM NKH-477 pre-stimulation, 30 nM PGD2, read-out: EC50, antagonism of intracellular cAMP induction): < 1000 nM
- mode of action at human DP2 (antagonist or agonist) (human DP2 receptor [1]; intracellular cAMP): antagonist
- IC50 (human DP2 receptor [2]): < 1000 nM
